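Each compound was tested at five concentrations against cells in 96-well plates for 48 hours. GI50 marks 50% less growth. TGI denotes the concentration required for complete inhibition of growth.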
How the values were obtained:
Experiment in all cases: inhibition of tumour cell growth, NCI panel, 48 h
SK-OV-3 ovarian = system: SK-OV-3 ovarian
OVCAR-3 ovarian = system: OVCAR-3 ovarian
ACHN renal = system: ACHN renal
EKVX NSCLC = system: EKVX NSCLC
MDA-MB-231 breast = system: MDA-MB-231 breast
UACC-62 melanoma = system: UACC-62 melanoma
SK-MEL-5 melanoma = system: SK-MEL-5 melanoma
UACC-257 melanoma = system: UACC-257 melanoma
SK-MEL-2 melanoma = system: SK-MEL-2 melanoma
SR leukemia = system: SR leukemia

Structure (SMILES)	TGI (SK-OV-3 ovarian) [µM]	TGI (OVCAR-3 ovarian) [µM]	TGI (ACHN renal) [µM]	TGI (EKVX NSCLC) [µM]	TGI (MDA-MB-231 breast) [µM]	TGI (UACC-62 melanoma) [µM]	TGI (SK-MEL-5 melanoma) [µM]	TGI (UACC-257 melanoma) [µM]	TGI (SK-MEL-2 melanoma) [µM]	TGI (SR leukemia) [µM]	GI50 (SK-OV-3 ovarian) [µM]	GI50 (OVCAR-3 ovarian) [µM]	GI50 (ACHN renal) [µM]	GI50 (EKVX NSCLC) [µM]	GI50 (SR leukemia) [µM]	GI50 (UACC-257 melanoma) [µM]
CCOP(=O)(/C=C\n1cnc2c(=O)n(C(C)=O)c(N)nc21)OCC	> 100	> 100	> 100	> 100	> 100	> 100	> 100	> 100	–	–	–	–	–	–	–	–
CC(=O)c1ccc(Oc2ccc(/C(C)=N\N=C(N)N)cc2)cc1	9.25	4.89	17.4	16.7	–	10.1	6.98	19	6.17	–	–	–	–	–	–	–
CC1(O)CC2C(CC1SCCO)C2(C)C (stereo not drawn)	> 100	> 100	> 100	> 100	–	–	> 100	> 100	> 100	–	–	–	–	–	–	–
CCSC1=N/C(=C\c2ccccc2O)C(Nc2ccc(C)cc2)=N1	> 100	67.3	> 100	> 100	> 100	> 100	> 100	> 100	> 100	–	–	–	–	–	–	–
O=C(O)CSc1cc(-c2ccccc2)nc2ccccc12	–	49	> 100	> 100	> 100	> 100	> 100	> 100	> 100	> 100	–	–	–	–	–	–
CC(=O)O[C@H]1CC[C@]2(C)[C@H]3CC[C@@H]4[C@H]5[C@H](C(C)C)CC[C@]5(C(=O)OCC(CO)(CO)N=C(N)N)CC[C@@]4(C)[C@]3(C)CC[C@H]2C1(C)C	3.96	3.2	3.26	3.53	–	–	–	3.97	–	4.61	2	1.67	1.8	1.8	2.11	1.82
COC(=O)C1=Nc2c(C)nn(-c3ccccc3)c2N=C(c2ccc(C)cc2)C1	> 10	> 10	> 10	–	> 10	> 10	> 10	> 10	–	> 10	–	–	–	–	–	–
O=C1CCCc2c1c1c(n2Cc2ccccc2)-c2ccccc2C1=O	> 100	36.7	30.9	91.3	42.9	44.9	40.7	32.1	43	–	–	–	–	–	–	–
C=C1c2c(cc3c(c2O)c(=O)c2ccccc2n3C)OC1(C)C	97.2	> 100	> 100	> 100	–	> 100	> 100	–	> 100	–	–	–	–	–	–	–
O=C1c2ccccc2-c2nc(-c3cccnc3)cc3c2c1nc1ccccc13	> 100	> 100	> 100	> 100	> 100	> 100	–	> 100	> 100	> 100	–	–	–	–	–	–
O=C(NO)c1coc2ccccc2c1=O	31.4	–	> 100	> 100	–	> 100	> 100	> 100	> 100	–	–	–	–	–	–	–
N#CCC(=O)Nn1c(CC#N)nnc1Cc1ccccc1	–	> 100	> 100	–	> 100	> 100	> 100	> 100	> 100	> 100	–	–	–	–	–	–
C=C(C=O)c1c2c(nc3ccccc13)C(=O)c1ccccc1C2=O	12.8	2.35	1.7	3.61	3.27	2.59	0.339	–	–	–	–	–	–	–	–	–
CC[N+]1(C)CCC(O)(c2ccc(Cl)cc2)C(C(=O)c2ccc(Cl)cc2)C1 (stereo not drawn)	27.7	43.3	33.5	–	40.5	27.9	–	61	–	36.4	–	–	–	–	–	–
CC(=O)Nc1ncc(Sc2ccccc2C(=O)O)s1	–	> 100	> 100	> 100	> 100	> 100	> 100	> 100	> 100	> 100	–	–	–	–	–	–
COc1cc(/C=C/C(C)=O)ccc1OP(=O)(O)O	> 100	> 100	> 100	> 100	> 100	> 100	> 100	> 100	> 100	–	–	–	–	–	–	–
O=C(O)CSCC(=O)Nc1ccc2cccc3c2c1CC3	–	> 100	> 100	> 100	> 100	> 100	> 100	> 100	> 100	–	–	–	–	–	–	–
CC(C)(C)[Si](C)(C)OCCCC#CCO	> 100	–	> 100	> 100	–	> 100	> 100	> 100	> 100	–	–	–	–	–	–	–
CCCNC(=S)N/N=C/c1cccc(C)n1	> 100	–	44.7	> 100	> 100	57	> 100	> 100	58.9	48.3	–	–	–	–	–	–
CC1CCCC2=C1C(c1ccc(Cl)cc1)n1c(s/c(=C\c3ccc(Cl)cc3)c1=O)=N2 (stereo not drawn)	> 100	–	> 100	> 100	> 100	> 100	> 100	> 100	> 100	–	–	–	–	–	–	–
CCOP(=O)(Nc1ccc(-c2ccccc2)cc1)OCC	> 100	> 100	> 100	> 100	> 100	> 100	> 100	> 100	> 100	–	–	–	–	–	–	–
COc1cc(N=NN(C)C)c(C(C)c2c3cc(OC)c(OC)cc3cc[n+]2C)cc1OC (stereo not drawn)	> 100	> 100	> 100	> 100	77	59.5	56.8	> 100	87.5	–	–	–	–	–	–	–
CC(=O)C1=C(N=[N+]=[N-])c2cccc3cccc(c23)C1=O	82.3	24.6	32.4	46.3	32	34.2	38.1	43.8	31.4	–	–	–	–	–	–	–
Cc1c(-c2cc3n(n2)C(c2cccs2)C(C#N)=C(c2ccccc2)N3)c(=O)n(-c2ccccc2)n1C (stereo not drawn)	> 100	> 100	–	> 100	–	> 100	> 85.8	98.7	> 100	–	–	–	–	–	–	–
Cc1csc2nc(-c3ccc([N+](=O)[O-])cc3)c(/C=N/N=C(N)N)n12	3.11	5.7	2.71	2.73	3.52	3.17	3.96	3.05	2.86	–	–	–	–	–	–	–

Reference: PubChem BioAssay (NCI)
